Measurements reported in patent publication US20240158448A1, “MULTIVALENT NANO-'SELF' PEPTIDES AND USES THEREOF” (THE TRUSTEES OF THE UNIVERSITY OF PENNSYLVANIA, priority 2021, published 2024).
“Also recorded” adds a separate entry of the source.

How the values were obtained:
human THP-1 macrophages [1] = test: In vitro phagocytosis assay: opsonized human RBCs engulfed by peptide-treated THP-1 macrophages; format: cell-based
Procedure: (§1) In vitro phagocytosis assay. Fresh human RBCs were washed twice with 50 mM EDTA (Thermo Fischer) in PBS (Gibco) then twice with 5% FBS in PBS. RBCs were opsonized with 20 μg/mL rabbit anti-human RBC antibody (Rockland) in 5% FBS for 1 hour at RT with shaking. For CD47 blocked RBCs, 5 μg/mL of mouse anti-human CD47 (B6H12; BD Biosciences) were added. Thereafter, RBCs were washed with PBS three times and stained with PKH26 dye (1:800 dilution in PBS; Sigma) for 1 hour at RT with shaking in the dark. RBCs were washed and resuspended in PBS.
(§2) THP-1 monocytes were PMA differentiated in RPMI for 48 hours. Macrophages were then washed with RPMI media three times. For SIRPα blocked THP-1 macrophages, 20 nM, 1 μM or 50 μM of the nano—Self peptides were incubated with the THP-1 macrophages for 1 hour at 37 ° C., 5% CO2 and 95% humidity. Those THP-Is were then washed with RPMI three times.
(§3) CO2 and 95% humidity. Macrophages were then washed with RPMI three times. Adherent and uninternalized RBCs were lysed with water for 30 seconds followed by immediate replacement with RPMI media. In order to distinguish remaining adherent RBCs from internalized RBCs, opsonized RBCs were stained with AlexaFluor 647 donkey anti-rabbit (binds to rabbit polyclonal opsonin on RBC; Invitrogen) IgG (1:1000) while unopsonized, CD47 blocked RBCs were stained with AlexaFluor 647 donkey anti-mouse (binds to mouse monoclonal anti-CD47 on RBCs; Invitrogen) IgG (1:1000) for 30 minutes. After washing, macrophages were fixed with 4% formaldehyde for 15 minutes at RT, washed with PBS, stained with 1 μg/mL Hoechst 33342, and then washed with PBS again. Fluorescence imaging was performed as described elsewhere herein and quantification was done using ImageJ. At least 200 cells were analyzed and experiments were repeated at least three times.

[2] = tested on: human macrophages (opsonized K562 cancer cells); test: Phagocytosis of opsonized K562 erythroleukemia cells by human macrophages; format: cell-based
Procedure: as §1, §2, §3
The anti-RBC successfully opsonized and triggered phagocytosis of K562 cells by macrophages (FIGS. 2A, 2F and 2E). […] Interaction of the nS peptides with K562 cells is likely minimal due to the relative lack of SIRPα expression. […] For both opsonized RBCs and opsonized K562s (FIGS. 2D, 2F), the hyperphagocytosis that is achieved with soluble F- and V-nS peptides matches the recently measured increases for disruption of both (i) the trans interactions between CD47 on a target and macrophage SIRPα and also, importantly, (ii) the cis interactions between CD47 and SIRPα on the same macrophage (FIG. 2G-left). Expression profiling of macrophages confirms these cells generally express CD47 at roughly similar levels to other cell types (FIG. 15). […] A preliminary conclusion is that nS-FF and the other substituted peptides, which were designed to bind SIRPα, inhibit both the cis and trans interactions between SIRPα and CD47 ([…]).

SIRPα = molecular target: T1, SIRPα (Homo sapiens, UniProt P78324); test: CD47-Fc Inhibition Assay on THP-1 macrophages; format: binding; settings: 1 μM or 50 μM peptide, 2 μg/mL CD47-Fc, anti-Fc fluorescence
T1 construct: THP-1 monocytes were PMA differentiated in RPMI for 48 h; endogenous in cells; host or cells: PMA-differentiated THP-1 macrophages
Procedure: CD47-Fc Inhibition Assay. THP-1 monocytes were PMA differentiated in RPMI for 48 h. The macrophages were washed with RPMI media and then incubated with 1 μM or 50 μM of nano- Self peptides for 1 h at 37° C., 5% CO2, and 95% humidity. After washing, the macrophages were incubated with Human Trustain FcX Fc receptor blocking solution (Biolegend) for 10 min at RT and then incubated with 2 μg/mL CD47-Fc fusion protein (ACRO Biosystems) for 1 h at 37° C., 5% CO2, and 95% humidity. As a negative control, B6H12 was pre-mixed with CD47-Fc at 4° C. on a rotator for 1 h. The macrophages were then washed and incubated with 0.5 μg/mL goat anti-human IgG Fc DyLight 488 (Thermo Fischer) for 1 h at 37° C., 5% CO2, and 95% humidity. Finally, the macrophages were washed, fixed, Hoechst 33342 stained, and imaged as described above.
To determine whether the nS peptides bind to SIRPα, nS-FF and nS-F4 were used as soluble competitive inhibitors of saturable CD47-Fc fusion protein binding to macrophages (FIG. 20). Addition of multivalent nS peptides was followed by Fc-receptor blockade to minimize Fc-driven binding of construct. Afterwards, CD47-Fc was added and then finally anti-Fc fluorescence imaging was performed (FIG. 20, left).

THP-1 macrophages = test: Peptide inhibition assay (competition with FAM-labeled nS-F on THP-1 macrophages); format: binding, human; settings: pre-treatment with unlabeled peptide
Procedure: Peptide inhibition assay. THP-1 monocytes were PMA differentiated in RPMI for 48 hours. […] To measure background internalization of the FAM-labeled peptides, nS-X-FAM was used. To determine the efficacy of the bivalent peptides to inhibit SIRPα binding, nS-X was used. Excess peptides were washed off with PBS and cells were fixed with 4% formaldehyde for 15 minutes at RT, washed with PBS, stained with 1 μg/mL Hoechst 33342, and then washed with PBS again. Fluorescence imaging was performed as described elsewhere herein and quantification was done using ImageJ.

[3] = tested on: mouse J774A.1 macrophages; test: In vitro phagocytosis assay: opsonized human RBCs engulfed by mouse J774A.1 macrophages; format: cell-based
Procedure: as §3, with “In vitro phagocytosis assay. […] For CD47 blocked RBCs, 5 μg/mL of mouse anti-human CD47 (B6H12; BD Biosciences) were added. Thereafter, RBCs were washed with PBS three times and stained with PKH26 dye (1:800 dilution in PBS; Sigma) for 1 hour at RT with shaking in the dark. RBCs were washed and resuspended in PBS. J774A.1 macrophages were plated for 24 hours in RPMI. For SIRPα blocked J774A.1 macrophages, the same peptide blocking procedure as described elsewhere herein was used with the addition of a positive control using 5 μg/mL rat anti-mouse SIRPα ([…]; BD Biosciences). […] CO2” for “CO2”

[4] = tested on: mouse bone marrow derived macrophages (BMDMs); test: Phagocytosis of anti-TYRP1 opsonized B16F10 melanoma cells by mouse bone marrow derived macrophages; format: cell-based; settings: 50 μM peptide
Procedure: B16F10 cells: Bone marrow cells were isolated from femurs and tibias of healthy C57BL6/J mice (The Jackson Laboratory) and cultured in 10-cm petri dishes containing IMDM (Gibco) supplemented with 10% v/v FBS, 1% v/v penicillin/streptomycin, and 1:10,000 macrophage colony stimulating factor cytokine (M-CSF; Biolegend) for 7 days at 37° C., 5% CO2 and 95% humidity. All animal experiments were performed according to protocols approved by the University of Pennsylvania's IACUC (protocol #805977 and #804455). The resulting mouse bone marrow derived macrophages (BMDMs) were washed with PBS containing Ca2^+/Mg2^+ (Gibco) then detached with 0.25% trypsin-EDTA (Gibco) and re-plated in 6-well tissue culture plates using IMDM+M-CSF for 24 hours.
Mouse melanoma B16F10 cells were washed with PBS containing Ca2-/Mg2- and then trypsinized with 0.05% trypsin-EDTA. After washing twice with PBS, the cells were labeled with 1:10,000 CFDA—SE (Thermo Fisher) in PBS for 10 minutes. B16F10 cells were opsonized with 10 μg/mL anti-TYRP1 (TA99; Bio X Cell) in PBS for 2 hours at 4° C.with occasional inverting. For CD47 blocked B16F10 cells, 5 μg/mL of […] were added. During the incubation time, the BMDMs were washed with media then stained with 1:2,000 CellTracker Deep Red (Thermo Fisher) in PBS with Ca2^+/Mg2^+ for 10 min. After washing, 50 μM of the nano—Self peptides were incubated with the BMDMs for 1 hour at 37° C., 5% CO2 and 95% humidity. Finally, BMDMs were washed twice with PBS and then twice with serum-free IMDM.
Without removing the supernatant, the opsonized melanoma cells were added to the labeled BMDMs at a ratio of 2:1 for 2 hours at 37° C., 5% CO2 and 95% humidity. During the last 15 minutes of the assay, the cells were Hoechst stained. The wells were washed with serum free IMDM then fixed with 4% formaldehyde for 15 minutes at RT, and PBS washed. Fluorescence imaging was performed using an Olympus IX71 with a digital EMCCD camera (Cascade 512B) and a 40×/0.6 NA objective. Quantification was done with ImageJ (NIH). At least 200 cells were analyzed and two-tailed student's t-test was used to determine statistical significance.

human THP-1 macrophages [5] = test: Residual adhesion of opsonized RBCs to macrophages; format: cell-based; settings: 50 μM peptide
Excerpt: To measure the residual adhesion of RBCs and distinguish it from internalization by macrophages, the engulfment assay with human RBCs used a secondary antibody against the opsonizing IgG, which allowed us to clearly see RBCs in contact with macrophages that are not internalized (FIG. 29C). The cells are also firmly attached to the macrophages because the culture dishes were rinsed after fixation and secondary antibody labeling. […] All of the RBCs in these samples are equally opsonized with IgG that binds Fc-receptors (FcR's) on macrophages, and so differences in measured adhesion implicate differences in the CD47—SIRPα interaction.

Substance	level of inhibition of CD47-Fc binding (SIRPα)	effect on phagocytosis of opsonized RBCs (words) (human THP-1 macrophages [1]; 20 nM peptide)	inhibition of monovalent nS-F-FAM binding to macrophages (THP-1 macrophages)	effect on phagocytosis of opsonized RBCs (words) (human THP-1 macrophages [1]; saturating / 50 μM peptide)	effect on phagocytosis of opsonized WT and SIRPα KO B16 cells [4]	other results
(VTELVREG-PEG5)2-K (VTELVREGKGERVLETV; bivalent, PEG5 linkers, lysine core; nS-VV; (8)..(9) 5x PEG linker between residues; (9)..(10) 5x PEG linker between residues) [bivalent nS-V]		successful in activating THP-1 to engulf opRBCs	further decreased	activity profiles in phagocytosis assays that are similar to the monovalent nS-F		
CVELTREGC (HELM PEPTIDE1{C.V.E.L.T.R.E.G.C.[am]}$PEPTIDE1,PEPTIDE1,1:R3-9:R3$$$V2.0; N-terminus assumed; SMILES CC(C)C[C@@H]1NC(=O)[C@H](CCC(=O)O)NC(=O)[C@H](C(C)C)NC(=O)[C@@H](N)CSSC[C@@H](C(N)=O)NC(=O)CNC(=O)[C@H](CCC(=O)O)NC(=O)[C@H](CCCNC(=N)N)NC(=O)[C@H]([C@@H](C)O)NC1=O) [nS-Cyc]				greater effect in perturbing the CD47-SIRPα interaction compared to linear nS-wt; also recorded: slightly higher levels than opsonized and anti-CD47 blocked RBCs; also recorded: Maximum levels of phagocytic macrophages	Maximum levels of phagocytic macrophages	fold more active than the linear counterpart ([3]; mouse macrophages, opsonized RBCs): roughly 20 fold; effect on phagocytosis of opsonized RBCs (words) ([3]; saturating / 50 μM peptide): slightly higher levels than opsonized and anti-CD47 blocked RBCs; residual adhesion of opsonized RBCs to macrophages (human THP-1 macrophages [5]): lowest amount of residual adhesion to macrophages
CVTELFREGC (HELM PEPTIDE1{C.V.T.E.L.F.R.E.G.C.[am]}$PEPTIDE1,PEPTIDE1,1:R3-10:R3$$$V2.0; N-terminus assumed; SMILES CC(C)C[C@@H]1NC(=O)[C@H](CCC(=O)O)NC(=O)[C@H]([C@@H](C)O)NC(=O)[C@H](C(C)C)NC(=O)[C@@H](N)CSSC[C@@H](C(N)=O)NC(=O)CNC(=O)[C@H](CCC(=O)O)NC(=O)[C@H](CCCNC(=N)N)NC(=O)[C@H](Cc2ccccc2)NC1=O) [nS-F-Cyc, cyclic variant of nS-F]				Maximum levels of phagocytic macrophages	Maximum levels of phagocytic macrophages	increase of macrophage phagocytosis relative to nS-wt (human THP-1 macrophages [1]; saturating peptide): roughly 25%

More lines, main results first:

level of inhibition of CD47-Fc binding (SIRPα)	Substance	effect on phagocytosis of opsonized RBCs (words) (human THP-1 macrophages [1]; 20 nM peptide)	inhibition of monovalent nS-F-FAM binding to macrophages (THP-1 macrophages)	effect on phagocytosis of opsonized RBCs (words) (human THP-1 macrophages [1]; saturating / 50 μM peptide)	effect on phagocytosis of opsonized WT and SIRPα KO B16 cells [4]	other results
as inhibitory as anti-CD47	((VTELFREG-PEG5)2-K)2-K [nS-F4]	more potent in enhancing phagocytosis	more potent in inhibiting monovalent nS-F-fluor association with macrophages than bivalent nS-FF			increase of phagocytosis relative to opsonized and CD47 blocked K562 cells ([2]; saturating peptide): nearly doubled; also recorded: about two-fold; macrophages engulfing opsonized K562 cells at saturation ([2]; saturation): ~40%
0	(LETVEGTR-PEG5)2-K (LETVEGTRKRTGEVTEL; bivalent, PEG5 linkers, lysine core; nS-XX; (8)..(9) 5x PEG linker between residues; (9)..(10) 5x PEG linker between residues) [bivalent scrambled control]			unaffected; also recorded: do not affect baseline engulfment of opsonized RBCs; also recorded: do not have effects on phagocytosis		effect on phagocytosis of opsonized K562 cells [2]: unaffected; also recorded: only opsonization effect observed
